# Measured values as given in patent US20240325544A1, “CATIONIC LIPID FOR COVALENT MODIFICATION OF PEPTIDES” (PharmalN Corporation, priority 2023, published 2024).
# Like-named read-outs stand apart in the source and are kept apart here. Marks after values point to notes of the source that are not given here. Bridge positions count the residues as written; N and C are the ends. Square brackets hold non-standard residues; d marks the D form. Peptide text beside a SMILES is read from it. * marks the point of attachment. C18 diacid = O=C(O)CCCCCCCCCCCCCCCCC(=O)*; Palmitoyl = CCCCCCCCCCCCCCCC(=O)*; Dab = NCC[C@H](N)C(=O)O; Hexanoyl = CCCCCC(=O)*; AEEA = NCCOCCOCC(=O)O
# Experiments:
# Sprague Dawley rats [1] = experiment: Clinically observable adverse effects of cationic alkyl moieties after subcutaneous bolus in rats (Table 1); type: in vivo, rat; settings: tested at 3.0, 5.0 or 10 μmol/kg
# Method: Drug administration and observation: Each rat received a subcutaneous injection of a cationic alkyl modifier (SEQ ID NO: 1-22; listed in Table 1 below) in a buffer of sterile water adjusted to a pH between 4.5-5, with an initial bolus dose of 5.0 μmol/kg and an injection volume of 1.0 mL/kg. The bolus dose level was adjusted based on observations, and animals were monitored closely for lethargy, ataxia, swelling, or discoloration during the first 4 hours post-injection and hourly thereafter. As used herein, “ataxia” means a clinical sign observed as poor muscle control that causes clumsy voluntary movements. It may cause difficulty with mobility, coordination, and eye movements. As used herein, “lethargy” means a clinical sign observed as inability or unwillingness to resume normal activity characterized by exploring and alertness. Lethargic rats are easily observed by displaying little to no activity and/or unwillingness to explore around, half closed eyes, and hunched posture. As used herein, “swelling” means a clinical sign observed as the enlargement or engorgement of body parts with blood or fluid and is associated with visible redness (discoloration). If no swelling occurred, dose level was increased to 10 μmol/kg; if swelling was present, bolus dose level was decreased to 3.0 μmol/kg. A wash-out period of 1 week was allowed between bolus doses, and animals were humanely euthanized through CO2 asphyxiation after final observation.
# Sprague Dawley rats [2] = experiment: Dose-range finding of cationic alkyl modified CNP, subcutaneous bolus in rats (Table 2)
# Method: Animal care and treatment: Male Sprague Dawley rats aged 8 to 10 weeks (Charles River, Hollister, CA) were housed in groups of two (n=3/group) in disposable polypropylene cages with rodent cob bedding at the PharmaIN animal facility. Animals had ad libitum access to food (LabDiet Pico Rodent #5053; Animal Specialties, Woodburn, OR) and water. Temperature (68-74° F.) and humidity (30-60%) were maintained within a controlled range, and a 12-hour light/dark cycle was used. […] Animals were monitored closely during the first 4 hours following injection, then hourly throughout the rest of the day for any signs of swelling or discoloration (dilatory side effect), lethargy (side effect), ataxia (ataxia is used as a marker of toxicity). Rats were allowed a 1-week wash-out period between bolus doses. Following final observations, animals were humanely euthanized through CO2 asphyxiation.
# [3] = Plasma concentration of respective natriuretic peptide by ELISA after SC bolus in CD-1 mice (pharmacokinetics, Table 3); settings: male, CD-1, mouse, in vivo
# Method: (§1) The test articles were formulated or dissolved in sterile water for injection on the same day of administration. […] Blood samples were collected via retro-orbital bleed at 2- and 6-hours post-injection, with two bleedings per animal at two different timepoints. The samples were collected in K2EDTA tubes, processed by centrifugation (2000×g; 15 m 4 eC within 30 minutes after collection), and the resulting plasma samples were stored at −80° C. Biochemical analysis: The plasma concentration of the respective natriuretic peptide was analyzed using commercially available ELISA kits from Phoenix Pharmaceuticals (Burlingame, CA): ANP ELISA (cat #EKE-005-06), BNP ELISA (cat #EKE-011-03), and CNP ELISA (cat #EKE-012-03). […] Plasma cGMP was analyzed using a commercially available kit from Abcam (ab133052, Waltham, MA).
# cGMP = experiment: Plasma cGMP after SC bolus of natriuretic peptides in CD-1 mice (pharmacodynamics, Table 3); type: in vivo; settings: SC bolus 1.0 mg/kg (≤0.45 μmol/kg), baseline 10 +/−8 pmol/ml, n = 3-5
# Method: as §1
Compound,Ataxia** in n = 3 (Sprague Dawley rats [2]; up to 10 mg/kg),Lethargy* in n = 3 (Sprague Dawley rats [2]; up to 10 mg/kg),Swelling and/or Discoloration in n = 3 (Sprague Dawley rats [2]; up to 10 mg/kg),Ataxia** in n = 3 (Sprague Dawley rats [2]; value in parentheses),Lethargy* in n = 3 (Sprague Dawley rats [2]; value in parentheses),Swelling and/or Discoloration in n = 3 (Sprague Dawley rats [2]; value in parentheses),"Plasma concentration of cGMP, 2 hr (cGMP)","Plasma concentration of cGMP, 6 hr (cGMP)",further results
"CCCCCCCCCCCCCCCC(=O)NCCOCCOCC(=O)NCCOCCOCC(=O)NCCOCCOCC(=O)N[C@@H](CCCCN)C(=O)N[C@@H](CCCCN)C(=O)O [SEQ ID NO: 7, CH3(CH2)14(C═O)-Aeea-Aeea-Aeea-KK]",–,–,–,–,–,–,–,–,Ataxia** in n = 3 (Sprague Dawley rats [1]; ataxia is bolus dose limiting toxicity): >5 µmol/kg; Swelling and/or Discoloration in n = 3 (Sprague Dawley rats [1]; dose at which sign was seen): ≥3 µmol/kg; Lethargy* in n = 3 (Sprague Dawley rats [1]; lethargy is considered maximum tolerated bolus dose): ≥5 µmol/kg
CCCCCCCCCCCCCCCC(=O)N[C@H](CCCCN)C(=O)N[C@H](CCCCN)C(=O)N[C@H](CCCCN)C(=O)N[C@H](CCCCN)C(=O)NCC(=O)NCC(=O)NCC(=O)NCC(=O)N[C@@H](CC(C)C)C(=O)N[C@@H](CO)C(=O)N[C@@H](CCCCN)C(=O)NCC(=O)N[C@H]1CSSC[C@@H](C(=O)O)NC(=O)CNC(=O)[C@H](CC(C)C)NC(=O)CNC(=O)[C@H](CO)NC(=O)[C@H](CCC(N)=O)NC(=O)[C@H](CO)NC(=O)CNC(=O)[C@H]([C@@H](C)CC)NC(=O)[C@H](CCCNC(=N)N)NC(=O)[C@H](CC(=O)O)NC(=O)[C@H](CC(C)C)NC(=O)[C@H](CCCCN)NC(=O)[C@H](CC(C)C)NC(=O)CNC(=O)[C@H](Cc2ccccc2)NC1=O [SEQ ID NO: 26] (Palmitoyl-[dK][dK][dK][dK]GGGGLSKGCFGLKLDRIGSQSGLGC-OH; disulfide 13-29; C-terminus assumed),≥5 mg/kg,≥5 mg/kg,≥5 mg/kg,(1.6) μmol/kg,(1.6) μmol/kg,(1.6) μmol/kg,–,–,–
CCCCCC(=O)N[C@@H](CCCCN)C(=O)N[C@@H](CCCCN)C(=O)NCC(=O)NCC(=O)NCC(=O)N[C@@H](CCCNC(=N)N)C(=O)N[C@@H](CCCNC(=N)N)C(=O)NCC(=O)N[C@@H](CC(C)C)C(=O)N[C@@H](CO)C(=O)N[C@@H](CCCCN)C(=O)NCC(=O)N[C@H]1CSSC[C@@H](C(=O)O)NC(=O)CNC(=O)[C@H](CC(C)C)NC(=O)CNC(=O)[C@H](CO)NC(=O)[C@H](CCC(N)=O)NC(=O)[C@H](CO)NC(=O)CNC(=O)[C@H]([C@@H](C)CC)NC(=O)[C@H](CCCNC(=N)N)NC(=O)[C@H](CC(=O)O)NC(=O)[C@H](CC(C)C)NC(=O)[C@H](CCCCN)NC(=O)[C@H](CC(C)C)NC(=O)CNC(=O)[C@H](Cc2ccccc2)NC1=O [SEQ ID NO: 27] (Hexanoyl-KKGGGRRGLSKGCFGLKLDRIGSQSGLGC-OH; disulfide 13-29; C-terminus assumed),≥5 mg/kg,≥5 mg/kg,≥5 mg/kg,(1.6) μmol/kg,(1.6) μmol/kg,(1.6) μmol/kg,–,–,–
CCCCCC(=O)N[C@@H](CCCCN)C(=O)N[C@@H](CCCCN)C(=O)NCC(=O)NCC(=O)NCC(=O)N[C@@H](CCN)C(=O)N[C@@H](CCN)C(=O)NCC(=O)N[C@@H](CC(C)C)C(=O)N[C@@H](CO)C(=O)N[C@@H](CCCCN)C(=O)NCC(=O)N[C@H]1CSSC[C@@H](C(=O)O)NC(=O)CNC(=O)[C@H](CC(C)C)NC(=O)CNC(=O)[C@H](CO)NC(=O)[C@H](CCC(N)=O)NC(=O)[C@H](CO)NC(=O)CNC(=O)[C@H]([C@@H](C)CC)NC(=O)[C@H](CCCNC(=N)N)NC(=O)[C@H](CC(=O)O)NC(=O)[C@H](CC(C)C)NC(=O)[C@H](CCCCN)NC(=O)[C@H](CC(C)C)NC(=O)CNC(=O)[C@H](Cc2ccccc2)NC1=O [SEQ ID NO: 28] (Hexanoyl-KKGGG[Dab][Dab]GLSKGCFGLKLDRIGSQSGLGC-OH; disulfide 13-29; C-terminus assumed),≥5 mg/kg,≥5 mg/kg,≥5 mg/kg,(1.6) μmol/kg,(1.6) μmol/kg,(1.6) μmol/kg,–,–,–
"CC[C@H](C)[C@@H]1NC(=O)[C@H](CCCNC(=N)N)NC(=O)[C@H](CC(=O)O)NC(=O)[C@H](CC(C)C)NC(=O)[C@H](CCCCN)NC(=O)[C@H](CC(C)C)NC(=O)CNC(=O)[C@H](Cc2ccccc2)NC(=O)[C@@H](NC(=O)CNC(=O)[C@H](CCCCN)NC(=O)[C@H](CO)NC(=O)[C@H](CC(C)C)NC(=O)CN)CSSC[C@@H](C(=O)O)NC(=O)CNC(=O)[C@H](CC(C)C)NC(=O)CNC(=O)[C@H](CO)NC(=O)[C@H](CCSC)NC(=O)[C@H](CO)NC(=O)CNC1=O [SEQ ID NO: 32, reference compound]",–,–,–,–,–,–,8.7 pmol/mL,9.5 pmol/mL,"level at 2 h ([3]; mice, SC bolus 1.0 mg/kg (≤0.45 μmol/kg), 2 hr, ELISA, n = 3-5, read-out: Plasma concentration of respective Natriuretic Peptide, ANP, BNP, or CNP, 2 hr): 2.17 ng/mL; level at 6 h ([3]; mice, SC bolus 1.0 mg/kg (≤0.45 μmol/kg), 6 hr, ELISA, n = 3-5, read-out: Plasma concentration of respective Natriuretic Peptide, ANP, BNP, or CNP, 6 hr): 2.91 ng/mL"
CC[C@H](C)[C@@H]1NC(=O)[C@H](CCCNC(=N)N)NC(=O)[C@H](CC(=O)O)NC(=O)[C@H](CC(C)C)NC(=O)[C@H](CCCCN)NC(=O)[C@H](CC(C)C)NC(=O)CNC(=O)[C@H](Cc2ccccc2)NC(=O)[C@@H](NC(=O)CNC(=O)[C@H](CCCCN)NC(=O)[C@H](CO)NC(=O)[C@H](CC(C)C)NC(=O)CNC(=O)[C@H](CCN)NC(=O)[C@H](CCN)NC(=O)COCCOCCNC(=O)COCCOCCNC(=O)COCCOCCNC(=O)CCCCCCCCCCCCCCCCC(=O)O)CSSC[C@@H](C(=O)O)NC(=O)CNC(=O)[C@H](CC(C)C)NC(=O)CNC(=O)[C@H](CO)NC(=O)[C@H](CCC(N)=O)NC(=O)[C@H](CO)NC(=O)CNC1=O [SEQ ID NO: 33] ({C18 diacid-AEEA-AEEA-AEEA}-[Dab][Dab]GLSKGCFGLKLDRIGSQSGLGC-OH; disulfide 8-24; C-terminus assumed),–,–,–,–,–,–,25.91** pmol/mL,31.61* pmol/mL,"level at 2 h ([3]; sc, 1 mg/kg): 75.9 ng/mL; level at 6 h ([3]; sc, 1 mg/kg): 68.2 ng/mL"
CC[C@H](C)[C@@H]1NC(=O)[C@H](CCCNC(=N)N)NC(=O)[C@H](CC(=O)O)NC(=O)[C@H](CC(C)C)NC(=O)[C@H](CCCCN)NC(=O)[C@H](CC(C)C)NC(=O)CNC(=O)[C@H](Cc2ccccc2)NC(=O)[C@@H](NC(=O)CNC(=O)[C@H](CCCCN)NC(=O)[C@H](CO)NC(=O)[C@H](CC(C)C)NC(=O)CNC(=O)[C@H](CCN)NC(=O)[C@H](CCN)NC(=O)COCCOCCNC(=O)COCCOCCNC(=O)CCCCCCCCCCCCCCCCC(=O)O)CSSC[C@@H](C(=O)O)NC(=O)CNC(=O)[C@H](CC(C)C)NC(=O)CNC(=O)[C@H](CO)NC(=O)[C@H](CCC(N)=O)NC(=O)[C@H](CO)NC(=O)CNC1=O [SEQ ID NO: 34] ({C18 diacid-AEEA-AEEA}-[Dab][Dab]GLSKGCFGLKLDRIGSQSGLGC-OH; disulfide 8-24; C-terminus assumed),–,–,–,–,–,–,15.78* pmol/mL,33.6 pmol/mL,"level at 2 h ([3]; sc, 1 mg/kg): 75.5 ng/mL; level at 6 h ([3]; sc, 1 mg/kg): 41 ng/mL"
"CC[C@H](C)[C@@H]1NC(=O)[C@H](CCCNC(=N)N)NC(=O)[C@H](CC(=O)O)NC(=O)[C@H](CCSC)NC(=O)[C@H](CCCNC(=N)N)NC(=O)CNC(=O)CNC(=O)[C@H](Cc2ccccc2)NC(=O)[C@@H](NC(=O)[C@H](CO)NC(=O)[C@H](CO)NC(=O)[C@H](CCCNC(=N)N)NC(=O)[C@H](CCCNC(=N)N)NC(=O)[C@H](CC(C)C)NC(=O)[C@@H](N)CO)CSSC[C@@H](C(=O)N[C@@H](CC(N)=O)C(=O)N[C@@H](CO)C(=O)N[C@@H](Cc2ccccc2)C(=O)N[C@@H](CCCNC(=N)N)C(=O)N[C@@H](Cc2ccc(O)cc2)C(=O)O)NC(=O)CNC(=O)[C@H](CC(C)C)NC(=O)CNC(=O)[C@H](CO)NC(=O)[C@H](CCC(N)=O)NC(=O)[C@H](C)NC(=O)CNC1=O [SEQ ID NO: 44, reference compound]",–,–,–,–,–,–,26.23 pmol/mL,14.08 pmol/mL,–
